Laboratory results from patent US8916599B2, “1H-benz imidazole-5-carboxamides as anti-inflammatory agents” (Orexo AB, priority 2008, dated 2014).

Target: T1, recombinant human mPGES-1 (Homo sapiens, UniProt O14684)
T1 construct: made in house; host or cells: Rosetta E. coli (microsomal/membrane fraction)
T1 sequence (O14684 1-152): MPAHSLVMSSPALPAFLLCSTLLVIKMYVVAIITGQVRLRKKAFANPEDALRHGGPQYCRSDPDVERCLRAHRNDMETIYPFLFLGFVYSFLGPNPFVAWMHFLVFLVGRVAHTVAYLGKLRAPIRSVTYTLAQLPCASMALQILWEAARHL
Assay: mPGES-1 inhibition test (microsomes, PGH2 substrate, HTRF detection of PGE2)
Type: biochemical
Conditions: inhibition of mPGES-1 at 10 μM
Procedure, shortened: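 First, inhibitor is incubated with microsomal enzyme from Rosetta E. coli in KPi pH 7.4 containing 2.5 mM GSH for 25 minutes at room temperature. Next, PGH2 is added and stopped after one minute with FeCl2 stop solution. Finally, diluted samples undergo HTRF PGE2 quantification.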

| inhibition at 10 µM | SMILES |
| --- | --- |
| 100% | Cc1cc(NC(=O)c2ccc3nc(Nc4c(Cl)cccc4Cl)[nH]c3c2)cc(Cl)n1 [Example 198, 2-(2,6-Dichloro-phenylamino)-3H-benzimidazole-5-carboxylic acid (2-chloro-6-methyl-pyridin-4-yl)-amide] |
| 100% | Cc1cc(C)nc(NC(=O)c2ccc3c(c2)nc(Nc2c(Cl)cccc2Cl)n3C)c1 [Example 201, 2-(2,6-Dichloro-phenylamino)-1-methyl-1H-benzimidazole-5-carboxylic acid (4,6-dimethyl-pyridin-2-yl)-amide] |
| 100% | Cc1cc(NC(=O)c2ccc3c(c2)nc(Nc2c(Cl)cccc2Cl)n3C)ncc1Cl [Example 202, 2-(2,6-Dichloro-phenylamino)-1-methyl-1H-benzimidazole-5-carboxylic acid (5-chloro-4-methyl-pyridin-2-yl)-amide] |
| 100% | Cn1c(Nc2c(Cl)cccc2Cl)nc2cc(C(=O)Nc3cc(C(F)(F)F)ccn3)ccc21 [Example 203, 2-(2,6-Dichloro-phenylamino)-1-methyl-1H-benzimidazole-5-carboxylic acid (4-trifluoromethyl-pyridin-2-yl)-amide] |
| 97% | CS(=O)(=O)NCCn1c(Nc2c(Cl)cccc2Cl)nc2cc(C(=O)Nc3cc(Cl)ccn3)ccc21 [Example 205, 2-(2,6-Dichloro-phenylamino)-1-(2-methanesulfonylamino-ethyl)-1H-benzimidazole-5-carboxylic acid (4-chloro-pyridin-2-yl)-amide] |
| 100% | CS(=O)(=O)NCCCn1c(Nc2c(Cl)cccc2Cl)nc2cc(C(=O)Nc3cc(Cl)ccn3)ccc21 [Example 206, 2-(2,6-Dichloro-phenylamino)-1-(3-methanesulfonylamino-propyl)-1H-benzimidazole-5-carboxylic acid (4-chloro-pyridin-2-yl)-amide] |
| 97% | O=C(Nc1cc(Cl)ccn1)c1ccc2c(c1)nc(Nc1c(Cl)cccc1Cl)n2C1CNC1 [Example 207, 2-(2,6-Dichloro-phenylamino)-1-azetidin-3-yl-1H-benzimidazole-5-carboxylic acid (4-chloro-pyridin-2-yl)-amide(trifluoro-acetate)] |
| 100% | NCCCn1c(Nc2c(Cl)cccc2Cl)nc2cc(C(=O)Nc3cc(Cl)ccn3)ccc21 [Example 208, 2-(2,6-Dichloro-phenylamino)-1-(3-amino-propyl)-1H-benzimidazole-5-carboxylic acid (4-chloro-pyridin-2-yl)-amide(trifluoro-acetate)] |
| 100% | O=C(Nc1cc(Cl)ccn1)c1ccc2c(c1)nc(Nc1c(Cl)cccc1Cl)n2CC1CNC1 [Example 209, 2-(2,6-Dichloro-phenylamino)-(1-azetidin-3-ylmethyl)-1H-benzimidazole-5-carboxylic acid (4-chloro-pyridin-2-yl)-amide (trifluoroacetate)] |
| 100% | Cn1c(Nc2c(Cl)cccc2Cl)nc2cc(C(=O)Nc3cc(Cl)ccn3)ccc21 [Example 210, 2-(2,6-Dichloro-phenylamino)-1-methyl-1H-benzimidazole-5-carboxylic acid (4-chloro-pyridin-2-yl)-amide] |
| 100% | NCCn1c(Nc2c(Cl)cccc2Cl)nc2cc(C(=O)Nc3cc(Cl)ccn3)ccc21 [Example 211, 2-(2,6-Dichloro-phenylamino)-1-(2-amino-ethyl)-1H-benzimidazole-5-carboxylic acid (4-chloro-pyridin-2-yl)-amide (trifluoroacetate)] |
| 100% | CNCCn1c(Nc2c(Cl)cccc2Cl)nc2cc(C(=O)Nc3cc(Cl)ccn3)ccc21 [Example 212, 2-(2,6-Dichloro-phenylamino)-1-(2-methylamino-ethyl)-1H-benzimidazole-5-carboxylic acid (4-chloro-pyridin-2-yl)-amide (trifluoroacetate)] |
| 87% | O=C(NCc1cc(C(F)(F)F)ccn1)c1ccc2[nH]c(Nc3c(Cl)cccc3Cl)nc2c1 [Example 221, 2-(2,6-Dichloro-phenylamino)-1H-benzimidazole-5-carboxylic acid (4-trifluoromethyl-pyridin-2-ylmethyl)-amide] |

The remaining lines, values behind:

| SMILES | inhibition at 10 µM |
| --- | --- |
| COc1cc2nc(Nc3c(Cl)cccc3Cl)[nH]c2cc1C(=O)NC1CCCCC1 [Example 199, N-(Cyclohexyl)-2-(2,6-dichlorophenylamino)-6-methoxy-1H-benzimidazole-5-carboxamide] | 100% |
| COc1cc2nc(Nc3c(Cl)cccc3Cl)[nH]c2cc1C(=O)NCc1ccccc1C(F)(F)F [Example 200] | 98% |
| O=C(NC1CCCCCC1)c1ccc2[nH]c(Nc3c(Cl)cccc3Cl)nc2c1 [Example 214, 2-(2,6-Dichloro-phenylamino)-1H-benzimidazole-5-carboxylic acid cycloheptyl-amide] | 100% |
| CC1CCC(NC(=O)c2ccc3[nH]c(Nc4c(Cl)cccc4Cl)nc3c2)CC1 (stereo not drawn) [Example 215, 2-(2,6-Dichloro-phenylamino)-1H-benzimidazole-5-carboxylic acid (4-methyl-cyclohexyl)-amide] | 96% |
| CO[C@H]1CC[C@H](NC(=O)c2ccc3[nH]c(Nc4c(Cl)cccc4Cl)nc3c2)CC1 [Example 216, 2-(2,6-Dichloro-phenylamino)-1H-benzimidazole-5-carboxylic acid ((1R,4R)-4-methoxy-cyclohexyl)-amide] | 64% |
| O=C(NCC1CCOCC1)c1ccc2[nH]c(Nc3c(Cl)cccc3Cl)nc2c1 [Example 217, 2-(2,6-Dichloro-phenylamino)-1H-benzimidazole-5-carboxylic acid (tetrahydro-pyran-4-ylmethyl)-amide] | 54% |
| CC1CC(NC(=O)c2ccc3[nH]c(Nc4c(Cl)cccc4Cl)nc3c2)CC(C)(C)C1 (stereo not drawn) [Example 218, 2-(2,6-Dichloro-phenylamino)-1H-benzimidazole-5-carboxylic acid (3,3,5-trimethyl-cyclohexyl)-amide] | 100% |
| O=C(NCC1CCCC1)c1ccc2[nH]c(Nc3c(Cl)cccc3Cl)nc2c1 [Example 219, 2-(2,6-Dichloro-phenylamino)-1H-benzimidazole-5-carboxylic acid cyclopentylmethyl-amide] | 100% |
| O=C(NCc1ncccc1C(F)(F)F)c1ccc2[nH]c(Nc3c(Cl)cccc3Cl)nc2c1 [Example 220, 2-(2,6-Dichloro-phenylamino)-1H-benzimidazole-5-carboxylic acid (3-trifluoromethyl-pyridin-2-ylmethyl)-amide] | 96% |
| O=C(NCc1ccc(C(F)(F)F)cn1)c1ccc2[nH]c(Nc3c(Cl)cccc3Cl)nc2c1 [Example 222, 2-(2,6-Dichloro-phenylamino)-1H-benzimidazole-5-carboxylic acid (5-trifluoromethyl-pyridin-2-ylmethyl)-amide] | 74% |
| O=C(NCc1cccc(C(F)(F)F)n1)c1ccc2[nH]c(Nc3c(Cl)cccc3Cl)nc2c1 [Example 223, 2-(2,6-Dichloro-phenylamino)-1H-benzimidazole-5-carboxylic acid (6-trifluoromethyl-pyridin-2-ylmethyl)-amide] | 87% |
| CS(=O)(=O)c1cccc(NC(=O)c2ccc3[nH]c(Nc4c(Cl)cccc4Cl)nc3c2)c1 [Example 224, 2-(2,6-Dichloro-phenylamino)-1H-benzimidazole-5-carboxylic acid (3-methanesulfonyl-phenyl)-amide] | 100% |
| O=C(NC1CCC(F)(F)CC1)c1ccc2[nH]c(Nc3c(Cl)cccc3Cl)nc2c1 [Example 225, 2-(2,6-Dichloro-phenylamino)-1H-benzimidazole-5-carboxylic acid (4,4-difluoro-cyclohexyl)-amide] | 80% |
| O=C(NC1CCCC(O)C1)c1ccc2[nH]c(Nc3c(Cl)cccc3Cl)nc2c1 (stereo not drawn) [Example 226, 2-(2,6-Dichloro-phenylamino)-1H-benzimidazole-5-carboxylic acid (3-hydroxy-cyclohexyl)-amide] | 64% |
| O=C(NCC1CCCOC1)c1ccc2[nH]c(Nc3c(Cl)cccc3Cl)nc2c1 (stereo not drawn) [Example 227, 2-(2,6-Dichloro-phenylamino)-1H-benzimidazole-5-carboxylic acid (tetrahydro-pyran-3-ylmethyl)-amide] | 77% |
| O=C(NC1CCCCC1C(F)(F)F)c1ccc2[nH]c(Nc3c(Cl)cccc3Cl)nc2c1 (stereo not drawn) [Example 228, 2-(2,6-Dichloro-phenylamino)-1H-benzimidazole-5-carboxylic acid (2-trifluoromethyl-cyclohexyl)-amide] | 86% |
| O=C(NC1CCCC(C(F)(F)F)C1)c1ccc2[nH]c(Nc3c(Cl)cccc3Cl)nc2c1 (stereo not drawn) [Example 229, 2-(2,6-Dichloro-phenylamino)-1H-benzimidazole-5-carboxylic acid (3-trifluoromethyl-cyclohexyl)-amide] | 91% |
| O=C(NC1CCC(C(F)(F)F)CC1)c1ccc2[nH]c(Nc3c(Cl)cccc3Cl)nc2c1 (stereo not drawn) [Example 230, 2-(2,6-Dichloro-phenylamino)-1H-benzimidazole-5-carboxylic acid (4-trifluoromethyl-cyclohexyl)-amide] | 99% |
| N#CC1(NC(=O)c2ccc3[nH]c(Nc4c(Cl)cccc4Cl)nc3c2)CCCCC1 [Example 231, 2-(2,6-Dichloro-phenylamino)-1H-benzimidazole-5-carboxylic acid (1-cyano-cyclohexyl)-amide] | 86% |
| O=C(NCCc1cccnc1)c1ccc2[nH]c(Nc3c(Cl)cccc3Cl)nc2c1 [Example 232, 2-(2,6-Dichloro-phenylamino)-1H-benzimidazole-5-carboxylic acid (2-pyridin-3-yl-ethyl)-amide] | 91% |
